In publication PMC11785708, “Design and synthesis of new quinazolinone derivatives: investigation of antimicrobial and biofilm inhibition effects” (Molecular Diversity, 2024):
In brackets after ≈: the same amount, converted by molar mass. Several values for one entry are separate records, joined by “and”; a condition that tells them apart may be missing. Equal values may be shown once.

Columns and labels:
[1] = test system: P. aeruginosa ATCC 27953; test: Agar well diffusion, P. aeruginosa; type: cell-based; settings: Pseudomonas aeruginosa, ATCC27953; 100 μl of test compound 20 mg/ml in DMF; ciprofloxacin and fluconazole 30 μg/ml; 24 h; mean ± SD; read-out: diameters of inhibition zone, P. aeruginosa ATCC 27953
Description: (§1) The antimicrobial activity was tested against Gram positive bacteria: Bacillus cereus (B. cereus ATCC 6629), Bacillus subtilis (B. subtilis ATCC 6633), Staphylococcus aureus (S. aureus ATCC 6538), Gram negative bacteria: Klebsiella pneumoniae (K. pneumoniae ATCC 13883), Pseudomonas aeruginosa (P. aeruginosa ATCC 27953) and Candida albicans (C. albicans ATCC 10231). Glycerol stocks were thawed upon need and propagated into nutrient broth at 37 °C. The antibacterial activity of the compounds 9-32 was carried out in vitro using the agar well diffusion method, originally reported by […] and Bauer and coworkers and described by the National Committee for Clinical Laboratory Standards (NCCLS). Bacterial strains, adjusted at […] (equivalent to 0.5 McFarland), were used to inoculate nutrient agar plates. 9-mm diameter wells were punched into the solidified nutrient agar plates using sterile cork borer and 100 μl samples of the test compounds, dissolved in dimethyl formamide (DMF) at 20 mg/ml concentrations, were added and allowed to diffuse at 4 °C for 2 h. Subsequently, the plates were incubated overnight in an upright position at 37 °C. DMF was used as a negative control while ciprofloxacin and fluconazole (30 μg/ml) served as positive controls. After 24 h incubation, the diameters of the growth inhibition zones were recorded in mm. Data was expressed as mean ± standard deviation of three replicates.

[2] = test system: S. aureus ATCC 6538; test: Agar well diffusion, S. aureus; type: cell-based; settings: Staphylococcus aureus, ATCC6538; 100 μl of test compound 20 mg/ml in DMF; ciprofloxacin and fluconazole 30 μg/ml; 24 h; mean ± SD; read-out: diameters of inhibition zone, S. aureus ATCC 6538
Description: as §1

[3] = test system: B. subtilis ATCC 6633; test: Agar well diffusion, B. subtilis; type: cell-based; settings: Bacillus subtilis, ATCC6633; 100 μl of test compound 20 mg/ml in DMF; ciprofloxacin and fluconazole 30 μg/ml; 24 h; mean ± SD; read-out: diameters of inhibition zone, B. subtilis ATCC 6633
Description: as §1

[4] = test system: B. cereus ATCC 6629; test: Agar well diffusion, B. cereus; type: cell-based; settings: Bacillus cereus, ATCC6629; 100 μl of test compound 20 mg/ml in DMF; ciprofloxacin and fluconazole 30 μg/ml; 24 h; mean ± SD; read-out: diameters of inhibition zone, B. cereus ATCC 6629
Description: as §1

[5] = test system: P. aeruginosa ATCC 27953; test: Inhibition of exopolysaccharide (EPS) production; type: cell-based, Pseudomonas aeruginosa; settings: means ± standard errors
Description: The inhibition of exopolysaccharide production by P. aeruginosa ATCC 27953 using quinazolinone derivatives was assessed according to total carbohydrate measurement.
P. aeruginosa’s biofilm was grown in the presence or absence of compounds (19, 20). Cells were incubated for 1 h with an equal volume of 5% (v/v) phenol and 5 × volume of concentrated sulfuric acid containing 0.2% (w/v) hydrazine sulphate then centrifuged at 10,000 g for 10 min (Z 326 K, HERMLE Labortechnik GmbH, Wehingen, Germany). The optical density of the supernatant was measured at 490 nm and the reduction in EPS was calculated as follows: EPSquantification%=OD490ofcontrol-OD490oftest/OD490ofcontrol×100

[6] = test system: K. pneumoniae ATCC 13883; test: Agar well diffusion, K. pneumoniae; type: cell-based; settings: Klebsiella pneumoniae, ATCC13883; 100 μl of test compound 20 mg/ml in DMF; ciprofloxacin and fluconazole 30 μg/ml; 24 h; mean ± SD; read-out: diameters of inhibition zone, K. pneumoniae ATCC 13883
Description: as §1

[7] = Cell viability MTT assay; type: cell-based; settings: human, BJ1 cells (normal skin fibroblasts)
Description: Cell viability testing at 5 mg/ml was carried out by colorimetric MTT assay on human normal cell line BJ1 (skin fibroblasts) to investigate the toxicity of the most broad spectrum derivatives 9, 15, 16, 18, 19, 20 and 29 (Table 3). The viability of the cells treated with the aforementioned derivatives was more than 87% at 5 mg/ml concentration. This gives indication that the compounds are tolerated and nontoxic for human cells, as the cytotoxic dose was higher than the therapeutic dose on most of microorganisms. It is worth mentioning that the safe limit of the percent of dead cells is not an absolute value and could be more than 10% as reported in previous studies.
The most broad spectrum compounds were evaluated for their cytotoxic activity against BJ1 cell line using colorimetric MTT [3-(4,5-dimethylthiazol-2-yl)-2,5-diphenyltetrazolium bromide] assay.

[8] = test system: C. albicans ATCC 10231; test: Agar well diffusion, C. albicans; type: cell-based; settings: Candida albicans, ATCC10231; 100 μl of test compound 20 mg/ml in DMF; ciprofloxacin and fluconazole 30 μg/ml; 24 h; mean ± SD; read-out: diameters of inhibition zone, C. albicans ATCC 10231
Description: as §1

[9] = test system: B. subtilis ATCC 6633; test: MIC determination, B. subtilis; type: cell-based, Bacillus subtilis; settings: serial dilutions, triplicate; for MIC: Bacillus subtilis, ATCC6633
Description: (§2) Serial dilutions of the test compounds were tested to determine their MIC against the most susceptible organisms. The MIC was expressed as the lowest concentration which inhibited the visible growth of the corresponding microorganism. All assays were performed in triplicate.

[10] = test system: S. aureus ATCC 6538; test: MIC determination, S. aureus; type: cell-based, Staphylococcus aureus; settings: serial dilutions, triplicate; for MIC: Staphylococcus aureus, ATCC6538
Description: as §2

[11] = test system: C. albicans ATCC 10231; test: MIC determination, C. albicans; type: cell-based, Candida albicans; settings: serial dilutions, triplicate; for MIC: Candida albicans, ATCC10231
Description: as §2

[12] = test system: K. pneumoniae ATCC 13883; test: MIC determination, K. pneumoniae; type: cell-based, Klebsiella pneumoniae; settings: serial dilutions, triplicate; for MIC: Klebsiella pneumoniae, ATCC13883
Description: as §2

[13] = test system: P. aeruginosa ATCC 27953; test: MIC determination, P. aeruginosa; type: cell-based, Pseudomonas aeruginosa; settings: serial dilutions, triplicate; for MIC: Pseudomonas aeruginosa, ATCC27953
Description: as §2

[14] = test system: B. cereus ATCC 6629; test: MIC determination, B. cereus; type: cell-based, Bacillus cereus; settings: serial dilutions, triplicate; for MIC: Bacillus cereus, ATCC6629
Description: as §2

[15] = test system: Pseudomonas aeruginosa ATCC 27953; test: Twitching motility assay; type: cell-based
Description: 5 µL of overnight-grown bacteria were stab-inoculated into Luria Bertani (LB) soft or quasi-solid plates containing 0.3% agar mixed with different concentrations of compounds 19, 20 and further incubated overnight in an upright position. The visible detectable distance of corrugated trails of twitching zones, away from the inoculation center at the petri dish-agar interface, was measured afterwards. The results were recorded as the average of several diameters’ measurements. DMF was used as a negative control. The experiments were performed in triplicate and represented as the mean of three measurements.

[16] = test system: P. aeruginosa ATCC 27953; test: Bacterial cell surface hydrophobicity (CSH) assay (MATH / BATH); type: cell-based, Pseudomonas aeruginosa; settings: increasing concentrations, toluene partition (Fig. 6)
Description: The effect of the test compounds 19 and 20 on cell surface hydrophobicity was investigated via the microbial or bacterial adherence to hydrocarbons (MATH / BATH) assay. Exponentially growing culture of P. aeruginosa ATCC 27953 incubated with or without test compounds were centrifuged, the pellets were re-suspended and OD600 was measured using UV/Vis spectrophotometer (Jasco V-630, Tokyo, Japan) to give Ao. The re-suspended cells were vigorously mixed with toluene followed by measuring the OD600 of the aqueous phase to give At. The hydrophobicity index was calculated as follows: Hydrophobicityindex=Ao-At/Ao×100

[17] = test system: P. aeruginosa ATCC 27953; test: Biofilm inhibition assay (crystal violet); type: cell-based; settings: Pseudomonas aeruginosa, ATCC27953, P. aeruginosa ATCC 27953, 24 h
Description: Compounds with potential activity against P. aeruginosa ATCC 27953 were tested for the respective biofilm inhibition. The assay was carried out in microtiter plate setup using crystal violet (CV) staining of adherent cells, as modified from.
After 24 h cultivation, the supernatant and planktonic cells were discarded, wells were washed with phosphate buffered saline (PBS) and biofilms were stained with 0.1% CV. CV was subsequently washed then, solubilized with 33% (v/v) glacial acetic acid. The absorbance was measured at 540 nm using SPECTROstar® Nano microplate reader (BMG LABTECH GmbH, Germany). The experiments were performed in triplicate and independently repeated three times. GraphPad Prism 6.0 software was used to estimate the IC50 values, which correspond to […].

[18] = test system: methicillin-resistant Staphylococcus aureus (MRSA); parameters: method as in PMID 32927027; settings: read-out: biofilm formation inhibition IC50; cited from earlier work

Compound	zone of inhibition at 20000 µg/mL [1] [mm]	zone of inhibition at 20000 µg/mL [2] [mm]	zone of inhibition at 20000 µg/mL [3] [mm]	zone of inhibition at 20000 µg/mL [4] [mm]	% EPS inhibition ([5]; 1/4 MIC) [%]	% EPS inhibition ([5]; 1 MIC) [%]	% EPS inhibition ([5]; 2 MIC) [%]	zone of inhibition at 20000 µg/mL [6] [mm]	viability at 5 mg/ml [7] [%]	zone of inhibition at 20000 µg/mL [8] [mm]	MIC [9] [µg/mL]	melting point [°C]	MIC [10] [µg/mL]	MIC [11] [µg/mL]	MIC [12] [µg/mL]	MIC [13] [µg/mL]	MIC [14] [µg/mL]	also measured
O=C(O)c1cn(C2CC2)c2cc(N3CCNCC3)c(F)cc2c1=O [Ciprofloxacin, reference compound]	35 ± 0.28	23 ± 0.15	33 ± 0.2	29 ± 0.18	1.46 ± 0.28	8.98 ± 0.52	16.54 ± 0.61	26 ± 0.17										% EPS inhibition ([5]; 2 MIC, listed as ciprofloxacin): ~ 16%
O=c1c2ccccc2nc(CN2CCCC2)n1N=Cc1ccccc1 [Compound 15, 3-(Benzylideneamino)-2-(pyrrolidin-1-ylmethyl)quinazolin-4(3H)-one]		12 ± 0.26	10 ± 0.33					13 ± 0.41	88.4 ± 0.91	11 ± 0.11	2000 ± 290 (≈ 6.02 mM)	108 to 110	2000 ± 290 (≈ 6.02 mM)	5000 (≈ 15 mM)	2000 (≈ 6.02 mM)			MIC, C. albicans ATCC 10231 [11]: 5000 ± 290 µg/mL (≈ 15 mM)
O=c1c2ccccc2nc(CN2CCCC2)n1N=Cc1ccc(Cl)cc1 [Compound 16, 3-[(4-Chlorobenzylidene)amino]-2-(pyrrolidin-1-ylmethyl).quinazolin-4(3H)-one]	17 ± 0.26	12 ± 0.08		13 ± 0.14					93.5 ± 1.54	13 ± 0.29		138	500 (≈ 1.36 mM)	10000 ± 500 (≈ 27.3 mM)		1500 (≈ 4.09 mM)	2000 ± 140 (≈ 5.45 mM)	MIC, S. aureus ATCC 6538 [10]: 500 ± 0 µg/mL (≈ 1.36 mM)
COc1ccc(C=Nn2c(CN3CCCC3)nc3ccccc3c2=O)cc1 [Compound 18, 3-[(4-Methoxybenzylidene)amino]-2-(pyrrolidin-1-ylmethyl)quinazolin-4(3H)-one]		14 ± 0.21	16 ± 0.31	17 ± 0.3				18 ± 0.2	87.2 ± 2.34	13 ± 0.14	1500 ± 290 (≈ 4.14 mM)	118 to 120	2500 (≈ 6.9 mM)	10000 ± 290 (≈ 27.6 mM)	2000 (≈ 5.52 mM)		2500 ± 290 (≈ 6.9 mM)	
COc1cc(C=Nn2c(CN3CCCC3)nc3ccccc3c2=O)cc(OC)c1OC [Compound 19, 2-(Pyrrolidin-1-ylmethyl)-3-[(3,4,5-trimethoxybenzylidene)amino]quinazolin-4(3H)-one]	16 ± 0.18		14 ± 0.31	17 ± 0.22	54.15 ± 4.00	55.93 ± 3.31	63.79 ± 2.70	18 ± 0.24	92.3 ± 3.37		1000 ± 290 (≈ 2.37 mM)	166			1000 ± 290 (≈ 2.37 mM)	150 (≈ 0.355 mM)	10000 ± 500 (≈ 23.7 mM)	MIC, P. aeruginosa ATCC 27953 [13]: 150 ± 60 µg/mL (≈ 0.355 mM); change in twitching zone diameter ([15]; highest tested concentration (= MIC)): 30%; effect on hydrophobicity index (CSH) [16]: no evident effect on CSH; IC50 [17]: 3.55 µM and 1.5 µg/mL
O=c1c2ccccc2nc(CN2CCCC2)n1N=Cc1ccc([N+](=O)[O-])cc1 [Compound 20, 3-[(4-Nitrobenzylidene)amino]-2-(pyrrolidin-1-ylmethyl)quinazolin-4(3H)-one]	21 ± 0.17	13 ± 0.11	10 ± 0.12	16 ± 0.07	21.51 ± 3.26	47.84 ± 3.00	61.50 ± 2.83	16 ± 0.09	88.1 ± 1.81		500 (≈ 1.32 mM)	156	15000 ± 500 (≈ 39.7 mM)		500 (≈ 1.32 mM)	250 (≈ 0.662 mM)	250 (≈ 0.662 mM)	MIC, P. aeruginosa ATCC 27953 [13]: 250 ± 140 µg/mL (≈ 0.662 mM); MIC, B. subtilis ATCC 6633 [9]: 500 ± 0 µg/mL (≈ 1.32 mM); effect on twitching motility ([15]; starting from sub-MIC equal to half the MIC dose): remarkably blocked; effect on hydrophobicity index (CSH) [16]: reduced hydrophobicity index; MIC, K. pneumoniae ATCC 13883 [12]: 500 ± 290 µg/mL (≈ 1.32 mM); IC50 [17]: 6.86 µM and 2.59 µg/mL; MIC, B. cereus ATCC 6629 [14]: 250 ± 0 µg/mL (≈ 0.662 mM)
Nc1nc(-c2cccc(Br)c2)cc(-c2nc3ccccc3c(=O)[nH]2)n1 [IV]																		IC50 [18]: 20.7 µM
